{
  "source": "paper PMC8752738",
  "about": "“A propolis-derived small molecule ameliorates metabolic syndrome in obese mice by targeting the CREB/CRTC2 transcriptional complex” (Nature Communications, 2022)",
  "system": "tissue mRNA levels",
  "test": "Quantitative PCR of tissue gene expression in treated mice",
  "format": "in vivo, mouse",
  "parameters": "key to mRNA levels Scap / mRNA levels Insig1 / mRNA levels Ldlr / mRNA levels Mttp / mRNA levels Atgl / mRNA levels Tnfaip2 / mRNA levels Rxra / mRNA levels Srebf1 / mRNA levels Ucp2: mRNA level normalized to ribosomal L32 mRNA (internal control)",
  "details": "for Lxra mRNA level: Figure 7g right, APC-20, single animals",
  "protocol": "Total RNA from cells and tissues was extracted by Trizol (Invitrogen) and reverse-transcribed into cDNA using the prime script RT reagent kit with gDNA eraser (Takara). The mRNA levels were determined using the SYBR-green PCR kit (Takara) with ABIPRISM 7900HT Sequence detector (ABI) according to the manufacturer’s protocol. The quantitative qPCR primers used in this work are listed in Supplementary Table 1. Ribosomal L32 mRNA levels were used as an internal control.",
  "key": {"[1]": {"details": "Figure 6f, CRTC2KO mice, oral APC, individual mice"}, "[2]": {"details": "Figure 6f, WT mice, oral APC, group mean, N 6"}, "[3]": {"details": "Figure 6f, WT mice, oral APC, individual mice"}, "[4]": {"details": "Figure 8b, group mean, VEH mean 1.017"}, "[5]": {"details": "Figure 8b, individual mice, relative to CT"}, "[6]": {"details": "Figure 6d, white fat (WF) tissue of DIO mice, individual animals"}},
  "note": "Where “and” joins values, the source holds several entries; their conditions need not be identical. Equal entries are not always repeated.",
  "data": [
    {"compound": "CC(C)=CCc1cc(C=CC(=O)O)cc(CC=C(C)C)c1O", "note": "[APC, 3,5-diprenyl-4-hydroxycinnamic acid]", "values": [
      {"measurement": "mRNA of Srebf-1c", "setting": "[1]", "result": "0.7027 and 0.8687 and 0.636 and 0.7129 and 0.563 and 0.649"},
      {"measurement": "mRNA of Srebf-2", "setting": "[1]", "result": "0.9632 and 0.7439 and 0.6331 and 0.8903 and 0.6443 and 0.8216"},
      {"measurement": "mRNA of Srebf-1c, Mean Diff. APC - VEH", "setting": "Figure 6f, WT mice, oral APC", "result": -0.3789},
      {"measurement": "mRNA of Srebf-2, Mean Diff. APC - VEH", "setting": "Figure 6f, WT mice, oral APC", "result": -0.3018},
      {"measurement": "mRNA of Srebf-1c, Mean 1 (APC)", "setting": "[2]", "result": 0.629},
      {"measurement": "mRNA of Srebf-2, Mean 1 (APC)", "setting": "[2]", "result": 0.7556},
      {"measurement": "mRNA of Srebf-1c", "setting": "[3]", "result": "0.563 and 0.9627 and 0.5968 and 0.3599 and 0.5266 and 0.7651"},
      {"measurement": "mRNA of Srebf-2", "setting": "[3]", "result": "0.6655 and 0.7786 and 0.6178 and 0.7571 and 0.8561 and 0.8585"},
      {"measurement": "Lxra mRNA level", "setting": "Crtc2KO mice", "result": "1.153 and 0.7926 and 0.8176 and 0.4111 and 0.7938"},
      {"measurement": "Lxra mRNA level", "setting": "WT mice", "result": "0.6135 and 0.274 and 0.3613 and 0.5157 and 0.4764"},
      {"measurement": "mRNA levels G6Pase, Mean of APC", "setting": "Figure 8b, group mean, VEH mean 1.004", "result": 0.5682},
      {"measurement": "mRNA levels Pck1, Mean of APC", "setting": "[4]", "result": 0.584},
      {"measurement": "mRNA levels Pgc-1a, Mean of APC", "setting": "[4]", "result": 0.499},
      {"measurement": "mRNA levels G6Pase", "setting": "[5]", "result": "0.4956 and 0.4542 and 0.8275 and 0.9159 and 0.3526 and 0.3635"},
      {"measurement": "mRNA levels Pck1", "setting": "[5]", "result": "0.4515 and 0.4432 and 0.8122 and 0.7784 and 0.5234 and 0.4955"},
      {"measurement": "mRNA levels Pgc-1a", "setting": "[5]", "result": "0.6618 and 0.6014 and 0.6454 and 0.5396 and 0.2614 and 0.2843"},
      {"measurement": "mRNA levels ApoB, Mean of APC", "setting": "Figure 6d, white fat (WF) tissue of DIO mice, group mean, Mean of VEH 0.9173", "result": 0.3598},
      {"measurement": "mRNA levels Srebf-1c, Mean of APC", "setting": "Figure 6d, white fat (WF) tissue of DIO mice, group mean, Mean of VEH 0.9567", "result": 0.3721},
      {"measurement": "mRNA levels Acsl1, Mean of APC", "setting": "Figure 6d, white fat (WF) tissue of DIO mice, group mean, Mean of VEH 0.9649", "result": 0.4379},
      {"measurement": "mRNA levels Lxra, Mean of APC", "setting": "Figure 6d, white fat (WF) tissue of DIO mice, group mean, Mean of VEH 0.976", "result": 0.6757},
      {"measurement": "mRNA levels Cebpa, Mean of APC", "setting": "Figure 6d, white fat (WF) tissue of DIO mice, group mean, Mean of VEH 0.9829", "result": 1.129},
      {"measurement": "mRNA levels Creb, Mean of APC", "setting": "Figure 6d, white fat (WF) tissue of DIO mice, group mean, Mean of VEH 0.9868", "result": 1.007},
      {"measurement": "mRNA levels Cpt1, Mean of APC", "setting": "Figure 6d, white fat (WF) tissue of DIO mice, group mean, Mean of VEH 0.9898", "result": 1.536},
      {"measurement": "mRNA levels Pparγ, Mean of APC", "setting": "Figure 6d, white fat (WF) tissue of DIO mice, group mean, Mean of VEH 0.9976", "result": 0.9616},
      {"measurement": "mRNA levels Tnfaip2, Mean of APC", "setting": "Figure 6d, white fat (WF) tissue of DIO mice, group mean, Mean of VEH 1.005", "result": 0.9923},
      {"measurement": "mRNA levels Pgc-1a, Mean of APC", "setting": "Figure 6d, white fat (WF) tissue of DIO mice, group mean, Mean of VEH 1.009", "result": 0.704},
      {"measurement": "mRNA levels Srebf-2, Mean of APC", "setting": "Figure 6d, white fat (WF) tissue of DIO mice, group mean, Mean of VEH 1.017", "result": 0.6488},
      {"measurement": "mRNA levels Acc, Mean of APC", "setting": "Figure 6d, white fat (WF) tissue of DIO mice, group mean, Mean of VEH 1.018", "result": 0.5342},
      {"measurement": "mRNA levels Scd1, Mean of APC", "setting": "Figure 6d, white fat (WF) tissue of DIO mice, group mean, Mean of VEH 1.022", "result": 0.5423},
      {"measurement": "mRNA levels Fasn, Mean of APC", "setting": "Figure 6d, white fat (WF) tissue of DIO mice, group mean, Mean of VEH 1.036", "result": 0.5535},
      {"measurement": "mRNA levels Mgll, Mean of APC", "setting": "Figure 6d, white fat (WF) tissue of DIO mice, group mean, Mean of VEH 1.041", "result": 0.6295},
      {"measurement": "mRNA levels Retn, Mean of APC", "setting": "Figure 6d, white fat (WF) tissue of DIO mice, group mean, Mean of VEH 1.044", "result": 0.3139},
      {"measurement": "mRNA levels Glut4, Mean of APC", "setting": "Figure 6d, white fat (WF) tissue of DIO mice, group mean, Mean of VEH 1.054", "result": 0.2982},
      {"measurement": "mRNA levels Atgl, Mean of APC", "setting": "Figure 6d, white fat (WF) tissue of DIO mice, group mean, Mean of VEH 1.057", "result": 1.332},
      {"measurement": "mRNA levels Hsl, Mean of APC", "setting": "Figure 6d, white fat (WF) tissue of DIO mice, group mean, Mean of VEH 1.069", "result": 1.68},
      {"measurement": "mRNA levels Lpl, Mean of APC", "setting": "Figure 6d, white fat (WF) tissue of DIO mice, group mean, Mean of VEH 1.114", "result": 0.6106},
      {"measurement": "mRNA levels Pgc-1b, Mean of APC", "setting": "Figure 6d, white fat (WF) tissue of DIO mice, group mean, Mean of VEH 1.126", "result": 0.666},
      {"measurement": "mRNA levels Acc", "setting": "[6]", "result": "0.5239 and 0.3917 and 0.6963 and 0.6783 and 0.5952 and 0.3196"},
      {"measurement": "mRNA levels Acsl1", "setting": "[6]", "result": "0.4459 and 0.1537 and 0.5539 and 0.2927 and 0.6116 and 0.5696"},
      {"measurement": "mRNA levels ApoB", "setting": "[6]", "result": "0.3337 and 0.2599 and 0.6345 and 0.1702 and 0.408 and 0.3527"},
      {"measurement": "mRNA levels Atgl", "setting": "[6]", "result": "1.322 and 1.233 and 1.718 and 1.2249 and 1.301 and 1.192"},
      {"measurement": "mRNA levels Cebpa", "setting": "[6]", "result": "1.279 and 0.9809 and 1.111 and 1.353 and 1.154 and 0.8979"},
      {"measurement": "mRNA levels Cpt1", "setting": "[6]", "result": "1.627 and 1.184 and 1.402 and 2.24 and 1.4196 and 1.345"},
      {"measurement": "mRNA levels Creb", "setting": "[6]", "result": "1.411 and 1.393 and 1.026 and 0.3555 and 0.9743 and 0.8802"},
      {"measurement": "mRNA levels Fasn", "setting": "[6]", "result": "0.5104 and 0.4062 and 0.9888 and 0.3127 and 0.6571 and 0.4456"},
      {"measurement": "mRNA levels Glut4", "setting": "[6]", "result": "0.4697 and 0.1331 and 0.1991 and 0.1942 and 0.3683 and 0.4245"},
      {"measurement": "mRNA levels Hsl", "setting": "[6]", "result": "2.303 and 1.694 and 1.5898 and 1.21 and 1.869 and 1.4146"},
      {"measurement": "mRNA levels Lpl", "setting": "[6]", "result": "0.6557 and 0.743 and 0.6544 and 0.3781 and 0.733 and 0.4994"},
      {"measurement": "mRNA levels Lxra", "setting": "[6]", "result": "0.7883 and 0.7167 and 0.4804 and 0.6732 and 0.7502 and 0.6457"},
      {"measurement": "mRNA levels Mgll", "setting": "[6]", "result": "0.5524 and 0.27 and 0.8642 and 0.6156 and 0.9323 and 0.5423"},
      {"measurement": "mRNA levels Pgc-1a", "setting": "[6]", "result": "0.5315 and 0.7402 and 0.6723 and 0.7798 and 0.8847 and 0.6158"},
      {"measurement": "mRNA levels Pgc-1b", "setting": "[6]", "result": "0.683 and 0.7869 and 0.6257 and 0.4165 and 0.7943 and 0.6894"},
      {"measurement": "mRNA levels Ppargamma", "setting": "[6]", "result": "1.1637 and 0.8189 and 1.303 and 0.8539 and 0.722 and 0.9079"}
    ]}
  ]
}
